Five compounds from article PMC4648050, “Discovery of Inhibitors of Trypanosoma brucei by Phenotypic Screening of a Focused Protein Kinase Library” (Chemmedchem, 2015) can be followed below.

As a reminder, the EC50 is the midpoint of the concentration-response curve.

Each structure is given as a SMILES string.

In test [1] the test system is MRC5 cells (human lung fibroblasts). In words: MRC5 proliferation assay. Format: cell-based. As to conditions: geometric mean of two or more determinations. The method, boiled down: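 Bloodstream-stage T. brucei or MRC5 cells (MRC5 in MEM + 10% FBS), 2×10^3 per well, exposed to compounds ([…] to 0.5 nM) for 69 h at 37 °C, 5% CO2. Viability read by fluorescence after a further 4 h with 50 μM resazurin.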

In a further test the target is MARK3 (Homo sapiens, UniProt P27448). In words: Kinase panel: MARK3. Format: biochemical, human/mammalian. As to conditions: compound at 10 μM, read-out: % of activity respect of the control. Here is the method:
(§1) The DDU kinase-focused compound set contains lead-like scaffolds that are designed to target protein kinases; they have kinase hinge binding motifs. Four of the 1H-imidazopyrazinones were screened against a human/mammalian kinase panel at the University of Dundee (http://www.kinase-screen.mrc.ac.uk) at a concentration of 10 μM. At the time of testing the panel contained 79 mammalian kinases selected to provide a broad coverage of the mammalian kinome (∼500 kinases in the human genome).[3] None of the compounds were active against any of the kinases at 10 μM.

The target in another test is DYRK1A (Homo sapiens, UniProt Q13627). Kind of test: Kinase panel: DYRK1A. In kind it is biochemical, human/mammalian. As to conditions: compound at 10 μM, read-out: % of activity respect of the control. Here is the method: as §1
The next test deals with T1, IKKb (Homo sapiens, UniProt O14920).
T1 sequence (O14920 1-756): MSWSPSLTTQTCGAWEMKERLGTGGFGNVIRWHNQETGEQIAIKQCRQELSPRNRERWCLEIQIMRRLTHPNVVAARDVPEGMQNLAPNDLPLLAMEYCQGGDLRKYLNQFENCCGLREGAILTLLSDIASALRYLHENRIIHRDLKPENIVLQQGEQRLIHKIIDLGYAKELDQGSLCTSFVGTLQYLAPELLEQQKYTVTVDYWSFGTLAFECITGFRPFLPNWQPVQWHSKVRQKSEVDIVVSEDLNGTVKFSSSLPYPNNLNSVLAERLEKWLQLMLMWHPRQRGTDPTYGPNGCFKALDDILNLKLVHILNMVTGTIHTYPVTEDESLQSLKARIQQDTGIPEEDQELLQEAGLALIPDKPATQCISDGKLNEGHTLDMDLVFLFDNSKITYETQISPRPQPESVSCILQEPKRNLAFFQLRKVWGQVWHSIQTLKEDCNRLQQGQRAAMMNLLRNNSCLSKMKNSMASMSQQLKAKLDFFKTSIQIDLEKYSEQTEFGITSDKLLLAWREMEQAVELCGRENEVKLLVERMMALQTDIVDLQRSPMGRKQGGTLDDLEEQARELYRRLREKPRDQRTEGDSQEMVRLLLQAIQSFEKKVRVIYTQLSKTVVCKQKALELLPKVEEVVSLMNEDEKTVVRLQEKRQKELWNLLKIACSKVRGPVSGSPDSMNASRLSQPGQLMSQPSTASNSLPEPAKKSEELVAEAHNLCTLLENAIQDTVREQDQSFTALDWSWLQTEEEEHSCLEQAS
In words: Kinase panel: IKKb. In kind it is biochemical, human/mammalian. As to conditions: compound at 10 μM, read-out: % of activity respect of the control. Here is the method: as §1

The next test has as its target Lck (Homo sapiens, UniProt P06239). Kind of test: Kinase panel: Lck. Conditions: compound at 10 μM, read-out: % of activity respect of the control. In kind it is biochemical, human/mammalian. The method, then:
as §1

A further test addresses p38a MAPK (Homo sapiens, UniProt Q16539). Kind of test: Kinase panel: p38a MAPK. In kind it is biochemical, human/mammalian. As to conditions: compound at 10 μM, read-out: % of activity respect of the control. The method, then:
as §1

A further test deals with JNK2 (Homo sapiens, UniProt P45984). Kind of test: Kinase panel: JNK2. Conditions: compound at 10 μM, read-out: % of activity respect of the control. In kind it is biochemical, human/mammalian. Here is the method:
as §1

For another test, the target named is PKA (Homo sapiens, UniProt P17612). In words: Kinase panel: PKA. In kind it is biochemical, human/mammalian. As to conditions: compound at 10 μM, read-out: % of activity respect of the control. Here is the method: as §1
The target in another test is T2, PDK1 (Homo sapiens, UniProt O15530).
T2 sequence (O15530 1-556): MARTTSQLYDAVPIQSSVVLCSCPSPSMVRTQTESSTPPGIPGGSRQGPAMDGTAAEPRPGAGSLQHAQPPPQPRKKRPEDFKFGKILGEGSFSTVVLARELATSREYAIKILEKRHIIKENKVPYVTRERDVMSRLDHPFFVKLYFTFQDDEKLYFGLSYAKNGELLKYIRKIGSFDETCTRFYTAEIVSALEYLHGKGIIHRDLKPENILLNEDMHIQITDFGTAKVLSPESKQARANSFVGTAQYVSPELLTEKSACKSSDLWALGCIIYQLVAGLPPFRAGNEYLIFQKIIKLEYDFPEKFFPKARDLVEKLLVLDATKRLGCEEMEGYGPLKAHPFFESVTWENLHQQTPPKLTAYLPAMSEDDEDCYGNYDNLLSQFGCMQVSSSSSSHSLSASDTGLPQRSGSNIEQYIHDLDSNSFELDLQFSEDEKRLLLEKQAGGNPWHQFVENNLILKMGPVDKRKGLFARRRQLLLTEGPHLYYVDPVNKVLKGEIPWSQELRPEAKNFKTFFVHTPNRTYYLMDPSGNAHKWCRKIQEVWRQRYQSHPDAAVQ
Kind of test: Kinase panel: PDK1. Format: biochemical, human/mammalian. As to conditions: compound at 10 μM, read-out: % of activity respect of the control. The method, then:
as §1

Another test has as its target T3, MST2 (Homo sapiens, UniProt Q13188).
T3 sequence (Q13188 1-491): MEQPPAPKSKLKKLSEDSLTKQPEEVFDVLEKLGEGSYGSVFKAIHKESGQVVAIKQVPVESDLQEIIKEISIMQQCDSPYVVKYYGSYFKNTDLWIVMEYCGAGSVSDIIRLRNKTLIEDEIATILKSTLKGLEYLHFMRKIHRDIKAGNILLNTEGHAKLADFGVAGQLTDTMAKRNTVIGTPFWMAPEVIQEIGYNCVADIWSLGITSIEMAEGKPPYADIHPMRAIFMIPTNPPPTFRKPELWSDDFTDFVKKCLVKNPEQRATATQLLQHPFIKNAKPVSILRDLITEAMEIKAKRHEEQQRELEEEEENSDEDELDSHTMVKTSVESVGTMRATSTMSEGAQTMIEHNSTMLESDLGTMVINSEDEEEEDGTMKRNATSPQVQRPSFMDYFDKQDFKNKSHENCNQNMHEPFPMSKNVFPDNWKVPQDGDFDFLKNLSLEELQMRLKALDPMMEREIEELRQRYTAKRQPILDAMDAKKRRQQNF
Kind of test: Kinase panel: MST2. Format: biochemical, human/mammalian. As to conditions: compound at 10 μM, read-out: % of activity respect of the control. The method, then: as §1

Lck, sequence (P06239 whole entry): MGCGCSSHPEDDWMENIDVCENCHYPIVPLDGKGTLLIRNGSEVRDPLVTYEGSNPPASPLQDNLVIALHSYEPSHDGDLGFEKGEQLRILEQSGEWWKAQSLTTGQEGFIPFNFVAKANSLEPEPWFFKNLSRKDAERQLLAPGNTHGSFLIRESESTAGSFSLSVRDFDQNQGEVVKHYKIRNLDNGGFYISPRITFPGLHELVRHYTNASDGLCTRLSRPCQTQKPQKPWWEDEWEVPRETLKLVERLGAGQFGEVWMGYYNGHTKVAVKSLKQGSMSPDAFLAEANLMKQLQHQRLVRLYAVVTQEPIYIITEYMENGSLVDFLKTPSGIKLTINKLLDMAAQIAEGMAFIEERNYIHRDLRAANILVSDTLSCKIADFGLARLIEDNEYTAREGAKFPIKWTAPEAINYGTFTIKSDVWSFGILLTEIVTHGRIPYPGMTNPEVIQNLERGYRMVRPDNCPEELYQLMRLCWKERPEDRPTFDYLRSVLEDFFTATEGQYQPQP
p38a MAPK, sequence (Q16539 whole entry): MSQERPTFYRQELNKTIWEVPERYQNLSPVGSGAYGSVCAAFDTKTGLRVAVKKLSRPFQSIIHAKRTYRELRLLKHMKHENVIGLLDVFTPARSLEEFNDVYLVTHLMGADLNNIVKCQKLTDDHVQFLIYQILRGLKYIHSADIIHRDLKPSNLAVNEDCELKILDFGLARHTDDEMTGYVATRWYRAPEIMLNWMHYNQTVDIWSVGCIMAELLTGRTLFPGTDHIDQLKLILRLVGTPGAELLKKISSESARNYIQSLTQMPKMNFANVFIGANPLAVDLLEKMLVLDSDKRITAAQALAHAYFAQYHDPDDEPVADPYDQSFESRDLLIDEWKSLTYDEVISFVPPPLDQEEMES
MARK3, sequence (P27448 whole entry): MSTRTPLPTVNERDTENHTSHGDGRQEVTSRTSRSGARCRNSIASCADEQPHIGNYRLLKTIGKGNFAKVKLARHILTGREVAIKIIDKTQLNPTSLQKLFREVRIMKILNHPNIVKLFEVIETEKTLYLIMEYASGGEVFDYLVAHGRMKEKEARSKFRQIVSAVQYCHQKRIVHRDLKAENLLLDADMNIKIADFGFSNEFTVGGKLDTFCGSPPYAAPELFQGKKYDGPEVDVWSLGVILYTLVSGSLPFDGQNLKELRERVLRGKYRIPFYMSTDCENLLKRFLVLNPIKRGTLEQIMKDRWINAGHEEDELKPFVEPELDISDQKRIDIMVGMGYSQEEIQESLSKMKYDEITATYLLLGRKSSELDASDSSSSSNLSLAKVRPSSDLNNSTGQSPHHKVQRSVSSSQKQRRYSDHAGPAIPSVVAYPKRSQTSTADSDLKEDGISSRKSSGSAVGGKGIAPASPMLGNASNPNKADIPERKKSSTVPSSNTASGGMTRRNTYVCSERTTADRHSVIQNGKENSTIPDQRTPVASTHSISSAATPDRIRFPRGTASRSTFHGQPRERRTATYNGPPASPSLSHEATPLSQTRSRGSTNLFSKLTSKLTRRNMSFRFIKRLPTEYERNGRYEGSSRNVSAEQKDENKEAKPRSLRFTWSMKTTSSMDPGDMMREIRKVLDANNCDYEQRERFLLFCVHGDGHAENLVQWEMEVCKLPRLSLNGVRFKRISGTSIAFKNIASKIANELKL
JNK2, sequence (P45984 whole entry): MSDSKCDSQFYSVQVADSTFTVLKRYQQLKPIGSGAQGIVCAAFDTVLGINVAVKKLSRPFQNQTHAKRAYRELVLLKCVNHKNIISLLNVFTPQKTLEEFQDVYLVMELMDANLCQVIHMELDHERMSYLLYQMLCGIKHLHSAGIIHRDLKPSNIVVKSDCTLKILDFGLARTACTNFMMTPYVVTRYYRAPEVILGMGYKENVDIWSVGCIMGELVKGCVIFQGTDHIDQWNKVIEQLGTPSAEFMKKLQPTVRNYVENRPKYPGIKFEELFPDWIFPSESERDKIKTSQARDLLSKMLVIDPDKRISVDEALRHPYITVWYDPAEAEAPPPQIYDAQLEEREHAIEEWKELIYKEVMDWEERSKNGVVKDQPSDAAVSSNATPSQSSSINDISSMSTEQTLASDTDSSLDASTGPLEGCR

In the case of `CC(c1ccccc1)n1c(=O)[nH]c2ncc(-c3ccc(F)cc3)nc21` (centres unmarked) [Compound 1], the EC50 in test [1] was more than 50 µM. For the same compound, the remaining activity at 10 µM on MARK3 stood at 110%; at DYRK1A it was 79%; at IKKb, 103%; at Lck, 90%; on p38a MAPK, 88%; at JNK2, 104%. In addition, the remaining activity at 10 µM was found to be 87% at PKA, 99% at PDK1 and 86% on MST2.

Consider `O=c1[nH]c2ncc(-c3ccc(F)cc3)nc2n1CC1CC1` [Compound 10], for which the EC50 in test [1] is more than 50 µM. For the same compound, the remaining activity at 10 µM at MARK3 turned out to be 97%; at DYRK1A, 113%; at IKKb, 105%; at Lck it was 99%; at p38a MAPK it was 87%; on JNK2 it was 97%. In addition, the values for the remaining activity at 10 µM at PKA, at PDK1 and at MST2 were 93%, 96% and 92%, respectively.

Compound `O=c1[nH]c2ncc(-c3ccc(F)cc3)nc2n1C1CCCCC1` [Compound 12, 1-Cyclohexyl-6-(4-fluorophenyl)-1H-imidazo[4,5-b]pyrazin-2(3H)-one] displayed an EC50 in test [1] of more than 50 µM. For the same compound, the remaining activity at 10 µM at MARK3 was 98%; at DYRK1A it was 93%; on IKKb it was 94%; on Lck it was 105%; at p38a MAPK, 86%; on JNK2, 93%. Further, the figures for the remaining activity at 10 µM on PKA, at PDK1 and on MST2 were 95%, 98% and 94%, respectively.

As to `C[C@H](c1ccccc1)n1c(=O)[nH]c2ncc(-c3ccccc3)nc21` [Compound 14, (R)-6-Phenyl-1-(1-phenylethyl)-1H-imidazo[4,5-b]pyrazin-2(3H)-one], the EC50 in [1] is 26 µM. Further, the remaining activity at 10 µM worked out at 100% at MARK3; 85% on DYRK1A; 77% on IKKb; 89% on Lck; 88% on p38a MAPK; 96% on JNK2. The remaining activity at 10 µM on PKA stood at 72%; at PDK1, 91%; on MST2, 78%.

As to `O=c1[nH]c2ncc(-c3ccccc3CO)nc2n1C1CCCCC1` [Compound 28], the EC50 in [1] is more than 50 µM.
